# Measurements as given in patent publication US20040053928A1, “Quinoline derivatives as antibacterials” (priority 2000, published 2004).
# Structures can show the parent of a compound that is named as a salt.
# Experiment: MIC of test compounds against various organisms
# Type: cell-based
# Conditions: against one or more of the above range of gram positive and gram negative bacteria
# Procedure: The MIC (μg/ml) of test compounds against various organisms was determined:
# S. aureus Oxford, S. aureus WCUH29, S. pneumoniae 1629, S. pneumoniae N1387, S. pneumoniae ERY 2, E. faecalis 1, E. faecalis 7, H. influenzae Q1, H. influenzae NEMC1, M. catarrhalis 1502, E. coil 7623, E.coli 120.
row,SMILES,MIC
1,"COc1ccc2nccc([C@@H](O)CN3CCC(NC/C=C/c4nccs4)CC3)c2n1 [Example 73, 4-[trans-1-(2-Thiazolyl)-3-propenyl]amino-1-[2-(R)-hydroxy-2-(6-methoxy-[1,5]-naphthyridin-4-yl)]ethylpiperidine dimethanesulphonate]",≤ 0.25 µg/mL
2,"COc1ccc2nccc([C@@H](O)CN3CCC(NCC(=O)Nc4ccc(F)c([N+](=O)[O-])c4)CC3)c2c1 [Example 36, N-[4-Fluoro-3-nitro-phenyl]-2-{1-[(R)-2-hydroxy-2-(6-methoxyquinolin-4-ethyl]-piperidin-4-ylamino)-acetamide dioxalate]",≤ 32 µg/mL
3,"COC(=O)C1(NCC(=O)Nc2ccccc2)CCN(C[C@H](O)c2ccnc3ccc(OC)cc23)CC1.O=C(O)C(=O)O.O=C(O)C(=O)O [Example 37, 2-{1-[2-(R)-Hydroxy-2-(6-methoxy-quinolin-4-yl)-ethyl]-4-methoxycarbonyl-piperidin-4-ylamino)-N-phenyl-acetamide dioxalate]",≤ 32 µg/mL
4,"COc1ccc2nccc([C@@H](O)CN3CCC(NCC(=O)Nc4ccc(F)c(F)c4)CC3)c2c1 [Example 17, N-(3,4-Difluoro-phenyl)-2-{1-[(R)-2-hydroxy-2-(6-methoxy-quinolin-4-yl-ethyl]-piperidin-4-ylamino)-acetamide dioxalate]",≤ 0.25 µg/mL
5,"COc1ccc2nccc([C@@H](O)CN3CCC(NCC(=O)Nc4ccccc4[N+](=O)[O-])CC3)c2c1 [Example 20, 2-{1-[(R)-2-Hydroxy-2-(6-methoxy-quinolin-4-yl-ethyl]-piperidin-4-ylamino}-N-(2nitro-phenyl)-acetamide dioxalate]",≤ 0.25 µg/mL
6,"CCOC(=O)C1CN(C(=O)Nc2ccnc3ccc(OC)cc23)CCC1NCC(=O)Nc1ccccc1 (racemic) [Example 5, cis-3-(R/S)-Ethoxycarbonyl-4-(S/R)-(phenylcarbamoylmethyl-amino)-piperidine-1-carboxylic acid (6methoxy-quinolin-4-yl)-amide oxalate]",≤ 32 µg/mL
7,"COc1ccc2nccc([C@@H](O)CN3CCC(NCC(=O)Nc4ccccc4)C(C(N)=O)C3)c2c1 (mixture of isomers) [Example 4, cis-2-{1-[2-(R)-Hydroxy-2-(6-methoxy-quinolin-4-yl)-ethyl]-3-(R/S)-aminocarbonyl-piperidin-4-(S/R)-ylamino}-N-phenyl-acetamide dioxalate]",≤ 2 µg/mL
8,"COc1ccc2nccc([C@@H](O)CN3CCC(NC(=O)/C=C/c4ccco4)CC3)c2c1 [Example 72, (E)-3-Furan-2-yl-N-{1-[(R)-2-hydroxy-2-(6-methoxyquinolin-4-yl)-ethyl]-piperidin-4-yl}-acrylamide oxalate]",≤ 2 µg/mL
9,"COc1ccc2nccc(NC(=O)N3CCC(NCCCc4ccco4)C(CO)C3)c2c1 (racemic) [Example 53, cis-4-(S/R)-[3-(2-Furyl)-propyl]amino-3-(R/S)-hydroxymethyl-[6-methoxyquinolin-4-yl)]aminocarbonylpiperidine oxalate]",≤ 2 µg/mL
10,"COc1ccc2nccc([C@@H](O)CN3CCC(NCC(=O)Nc4ccc(F)cc4)CC3)c2c1 [Example 41, N-(4-Fluoro-phenyl)-2-{1-[(R)-2-hydroxy-2-(6-methoxy-quinlin-4-yl)-ethyl]-piperidin-4-ylamino}-acetamide dioxalate]",≤ 2 µg/mL
11,"COc1ccc2nccc([C@@H](O)CN3CCC(CO)(NCC(=O)Nc4ccccc4)CC3)c2c1 [Example 38, 2-{1-[2-(R)-Hydroxy-2-(6-methoxy-quinolin-4-yl)-ethyl]-4-hydroxymethyl-piperidin-4-ylamino}-N-phenyl-acetamide dioxalate]",≤ 2 µg/mL
12,"CCOC(=O)C1CN(C[C@H](O)c2ccnc3ccc(OC)cc23)CCC1NCC(=O)Nc1ccccc1 (mixture of isomers) [Example 2, cis-2-{1-[2-(R)-Hydroxy-2-(6-methoxy-quinolin-4-yl)-ethyl]-3-(R/S)-ethoxycarbonyl-piperidin-4-(S/R)-ylamino}-N-phenyl-acetamide dioxalate]",≤ 0.25 µg/mL
13,"COc1ccc2nccc([C@@H](O)CN3CCC(N(C)CC(=O)Nc4ccccc4)CC3)c2c1.O=C(O)C(=O)O.O=C(O)C(=O)O [Example 12, 2-{1-[(R)-2-Hydroxy-2-(6-methoxy-quinolin-4-yl)-ethyl]-piperidin-4-yl-N-methylamino}-N-phenyl-acetamide dioxalate]",≤ 32 µg/mL
14,"COc1ccc2nccc([C@@H](O)CN3CCC(NCC(=O)Nc4cc(F)cc(F)c4)CC3)c2c1 [Example 29, N-(3,5-Difluoro-phenyl)-2-{1-[(R)-2-hydroxy-2-(6-methoxy-quinolin-4-yl)-ethyl]-piperidin-4-ylamino)-acetamide dioxalate]",≤ 0.25 µg/mL
15,"COc1ccc2nccc(CCN3CCC(NCC(=O)Nc4ccc(F)cc4)CC3)c2c1 [Example 42, N-(4-Fluoro-phenyl)-2-{1-[2-(6-methoxy-quinolin-4-yl)-ethyl]-piperidin-4-ylamino}-acetamide dioxalate]",≤ 2 µg/mL
16,"COc1ccc2nccc([C@@H](O)CN3CCC(NC/C=C/c4ccccc4[N+](=O)[O-])CC3)c2c1 [Example 54, 4-[trans-1-(2-Nitrophenyl)-3-propeny]amino-1-[2-(R)-hydroxy-2-(6-methoxyquinolin-4-yl)]ethylpiperidine dioxalate]",≤ 0.25 µg/mL
17,"COc1ccc2nccc([C@@H](O)CN3CCC(NCC(=O)Nc4cccc(C#N)c4)CC3)c2c1 [Example 34, N-[3-Cyano-phenyl]-2-{1-[(R)-2-hydroxy-2-(6-methoxy-quinolin-4-yl)-ethyl]-piperidin-4-ylamino)-acetamide dioxalate]",≤ 32 µg/mL
18,"COc1ccc2nccc([C@@H](O)CN3CCC(NCC(=O)Nc4ccccc4)C(CO)C3)c2c1 (mixture of isomers) [Example 3, cis-2-{1-[2-(R)-Hydrxy-2-(6-methoxy-quinolin-4-yl)-ethyl]-3-(R/S)-hydroxymethyl-piperidin-4-(S/R)-ylamino}-N-phenyl-acetamide dioxalate]",≤ 2 µg/mL
19,"COc1ccc2nccc(NC(=O)N3CCC(NCC(=O)Nc4ccccc4)C(CO)C3)c2c1 (racemic) [Example 6, cis-3-(R/S)-Hydroxymethyl-4-(S/R)-(phenylcarbamoylmethyl-amino)-piperidine-1-carboxylic acid (6-methoxy-quinolin-4-yl)-amide oxalate]",≤ 32 µg/mL
20,"COc1ccc2nccc([C@@H](O)CN3CCC(NCC(=O)Nc4ccccn4)CC3)c2c1 [Example 13, 2-{1-[(R)-2-Hydroxy-2-(6-methoxy-quinolin-4-yl)-ethyl]-piperidin-4-ylamino}-N-pyridin-2-yl-acetamide dioxalate]",≤ 0.25 µg/mL
21,"COc1ccc2nccc([C@@H](O)CN3CCC(NCC(=O)Nc4ccccc4)CC3)c2c1 [Example 1, 2-{1-[(R)-2-Hydroxy-2-(6-methoxy-quinoin-4-yl)-ethyl]-piperidin-4-ylamino}-N-phenyl-acetamide dioxalate]",≤ 0.25 µg/mL
22,"COc1ccc2nccc([C@@H](O)CN3CCC(NCC(=O)Nc4ccccc4C#N)CC3)c2c1 [Example 19, N-(2Cyano-phenyl)-2-{1-[(R)-2-hydroxy-2-(6-methoxy-quinolin-4-yl-ethyl]-piperidin-4-ylamino)-acetamide dioxalate]",≤ 0.25 µg/mL
23,"COc1cc(F)c2nccc([C@@H](O)CN3CCC(NCCOc4ccccn4)CC3)c2c1 [Example 74, 4-[2-(Pyridin-2-yloxy)-ethylamino]-1-[2-(R)-hydroxy-2-(8-fluoro-6-methoxyquinolin-4-yl)]ethylpiperidine dioxalate]",≤ 0.25 µg/mL
24,"COc1ccc2nccc([C@@H](O)CN3CCC(NCC(=O)Nc4ccc(Cl)c(Cl)c4)CC3)c2c1 [Example 18, N-(3,4-Dichloro-phenyl)-2-{1-[(R)-2-hydroxy-2-(6-methoxy-quinolin-4-yl-ethyl]-piperidin-4-ylamino)-acetamide dioxalate]",≤ 2 µg/mL
25,"COc1ccc2nccc([C@@H](O)CN3CCC(NCCCn4cc(F)c(=O)[nH]c4=O)CC3)c2c1 [Example 75, 5-Fluoro-1-(3-{1-[(R)-2-hydroxy-2-(6-methoxy-quinolin-4-yl)-ethyl]piperidin-4-ylamino}-propyl)-1H-pyrimidine-2,4-dione dioxolate]",≤ 32 µg/mL
